The record followed here is patent US20230165865A1, “HETEROARYLDIHYDROPYRIMIDINE DERIVATIVES AND METHODS OF TREATING HEPATITIS B INFECTIONS” (Janssen Pharmaceutica NV, priority 2018, published 2023).

One may read the Cmax as the highest concentration seen after dosing.

A short description of data set [1]: Pharmacokinetic study after intravenous and oral administration in male SD rats. To be noted: for clearance / Cmax: male, SD; for clearance / IV AUCinf/Dose: IV, nominal 2 mg/kg; for clearance: read-out: IV Cl; for Cmax / PO AUCinf/Dose: PO; for Cmax: nominal 5 mg/kg; for F: PO vs IV. The format is in vivo. As for the experimental part: Male SD rats with a weight range of 250-300 g (Si Bei Fu Laboratory Animal Technology Co. Ltd, China) were used. Animals were fasted overnight and free access to food 4 hours after dosing.
Test compound (correction factor: 1.00) was dissolved in a 20% hydroxypropyl-β-cyclodextrin (HP-β-CD) at a final concentration of 1 mg/ml for the intravenous (IV) formulation and at final concentrations of 0.5 mg/ml for the oral (PO) formulation.
The intravenous formulation was dosed at 2 ml/kg to obtain a dose of 2 mg/kg. The oral formulations were dosed at 10 ml/kg to obtain final doses of 5 mg/kg.
Blood samples were taken at 5, 15 and 30 min, 1, 2, 4, 8 and 24 h after intravenous dose administration. Blood samples were taken at 15 and 30 min, 1, 2, 4, 8, 12 and 24 h after oral dose administration.
Approximately 0.20 mL blood will be collected into BD blood collection tubes containing Sodium Fluoride (NaF), Potassium Oxalate (KoX) and K3-EDTA at each time point. Samples were placed immediately on melting ice and plasma was obtained following centrifugation at 4° C. for 5 minutes at approximately 4000×g. Plasma samples were adjusted to pH 3-4 by phosphoric acid and stored at −75±15° C. prior to analysis. The whole process was completed within 1 hour.
Plasma samples were analyzed using LC-MS/MS methods. The lower limit of quantification (LLOQ) for plasma was 1.0 ng/ml.
A non-compartmental analysis using the “Linear up log down” rule was used for all data. A limited pharmacokinetic analysis was performed using Phoenix™ Professional (Version 6.1). Results: See table 10 below for plasma PK results.

The nature of data set [2]: Metabolic stability of test compound in human hepatocyte cell. To be noted: cryopreserved human hepatocytes (suspension), human hepatocytes; for half-life at 1 uM: 0-120 min, read-out: T½; for CLint scaled at 1 uM: scale-up intrinsic clearance, scaling factor 2544.3, read-out: Clint (liver). The format is in vitro ADME. As for the experimental part: • 1. The cryopreserved human hepatocytes cells were thawed in 37° C. water bath and diluted with pre-warmed incubation medium to a working cell density of 1×10^6 viable cells/mL. • 2. The 198 μL pre-warmed hepatocyte suspensions were spiked with 2 μL of 100 μM compound or reference compound(Verapamil) at a final concentration of 1.0 μM in a 96-well plate. The plate was incubated at 37° C., 900 rpm. All incubations will be performed in singlet. • 3. 25 μL aliquots of well contents were collected at time points of 0, 15, 30, 60, 90 and 120 minutes. The reactions were stopped by the addition of 6-fold volumes of cold acetonitrile with internal standards. • 4. After centrifugation for 25 minutes at 3,220 g. Aliquot of 100 μL of the supernatant was mixed with 100 μL of ultra-pure H2O and then used for LC-MS/MS analysis.
All calculations were carried out using Microsoft Excel. Peak areas were determined from extracted ion chromatograms. Determine the in vitro half-life (t1/2) of parent compound by regression analysis of the percent parent disappearance vs. time curve.
The in vitro half-life (in vitro t1/2) is determined from the slope value k:
Conversion of the in vitro t1/2(in min) into the in vitro intrinsic clearance (in vitro CLint, in μL/min/10^6 cells) is done using the following equation:
V=incubation volume (0.2 mL);
N=number of hepatocytes per well (0.2×10^6 cells).
Conversion of the in vitro t1/2(in min) into the scale-up intrinsic clearance (CLint(liver), in mL/min/kg) was done using the following equation:
CLint(liver)=kV/N×scaling factor

In data set [3] the test system is cryopreserved human hepatocytes. The experiment in a line: Cell viability assessment in CYP induction study (CellTiter-Fluor). To be noted: donor 1, 10 μM, 72 hours. In kind it is cell-based. The procedure:
Preparation and Plating of Human Hepatocytes • 1. The cryopreserved human hepatocytes were thawed in 37° C. water bath and diluted by plating medium to a seeding density of 0.55×10^6 cells/mL. • 2. Transfer 100 μL to each well of collagen I coated 96-well plate. Place plate(s) in incubator and incubate at 37° C. for 4-6 hours. • 3. After incubation, observe cell morphology, agitate plate(s) to loosen debris, and replace medium. Place plate in incubator and incubate for 18 hours.
Incubation with Test Compound(s) • 1. Prepare dilute test compound and positive control inducers with 37° C. prepared incubation medium to respective working concentrations (Table 11). Final concentration of DMSO in the treatment group will be 0.1%. Prepare 25 mM chlorpromazine in DMSO and dilute 1000-fold with incubation medium as a cytotoxicity control.
• 2. Remove the Hepatocyte plate from the incubator. Observe cell morphology. Replace the medium in the appropriate wells with 125 μL of the toxicity controls, DMSO controls, inducers, or test article solutions, each in triplicate. • 3. After 24 hours and 48 hours, remove the Hepatocyte plate from the incubator and observe cell morphology. Renew the medium with test articles that freshly diluted from DMSO stocks. […]
After 72 hours of treatment, warm the incubation medium to 37° C. […] Cell viability was assessed by CellTiter-Fluor™ Cell Viability Assay kit. […]

[4] abbreviates: rat plasma, comparing with reference 2.

As for `CCOC(=O)C1=C(CN2CCN3C(=O)N(CC(C)(C)C(=O)O)C[C@@H]3C2)NC(c2nccs2)=N[C@H]1c1cccc(F)c1C` [Reference 2, reference compound], in data set [1] (rat plasma), the clearance turned out to be 65.6 mL/min/kg, the highest level (Cmax) was 332 ng/mL, the “IV AUCinf/Dose” value was found to be 254.9 ng·kg·h/mg/mL and the “PO AUCinf/Dose” value turned out to be 129.7 ng·kg·h/mg/mL. The F in data set [1] (rat) worked out at 50.8%. In data set [2], the half-life at 1 uM worked out at 2.45 h and the CLint scaled at 1 uM was 12 mL/min/kg. For the same compound, in data set [3], the Cell viability worked out at 117%.

For `CCOC(=O)C1=C(CN2CCN3C(=S)N(CC(C)(C)C(=O)O)CC3C2)NC(c2nccs2)=N[C@H]1c1cccc(F)c1C` (single isomer, unassigned) [Compound 1A], in data set [1] (rat plasma), the clearance came to 11.6 mL/min/kg, the Cmax is 4060 ng/mL, the “IV AUCinf/Dose” value stood at 1578.1 ng·kg·h/mg/mL and the “PO AUCinf/Dose” value turned out to be 1780.7 ng·kg·h/mg/mL. In data set [1] (setting [4]), the “clearance, in words” value is on record as “far slower clearance” and the “dose-normalized AUC (AUCinf/Dose), in words” value is given as “over two-folds higher”. In data set [1] (rat), this compound came in with an F of 113%. Moreover, the “bioavailability (F (%)), in words” value in data set [1] (rat, comparing with reference 2) is given as “increased (or equal) bioavailability”. Further, in data set [2], the half-life at 1 uM came to 3.82 h and the CLint scaled at 1 uM worked out at 7.7 mL/min/kg. Besides, the Cell viability in data set [3] was determined as 95%.
